From PubChem BioAssay AID200 (DTP/NCI, 2004)
“And” between values parts separate entries of the source, which are not always exact repeats. Equal values may be shown once. Toxic doses and inconclusive results are not listed.

Test system: B6C3F1 mice, B16 melanoma ip, median survival T/C
Assay: NCI In Vivo Anticancer Drug Screen. Data for tumor model B16 Melanoma (intraperitoneal) in B6C3F1 mice
Conditions: endpoint: median survival time, higher = longer survival
Procedure: The antitumor activity of compounds was measured in mice bearing transplantable tumors. Survival or tumor size were measured and the results are expressed as the measurement made in the treated group (T) divided by the measurement made in the vehicle treated control group (C). The tumor model used in this assay is B16 Melanoma (intraperitoneal) in B6C3F1 mice

[1] = dose: 6.25 mg/kg/injection, schedule: Q01DX009 (ip), vehicle: saline with Tween-80
[2] = dose: 12.5 mg/kg/injection, schedule: Q01DX009 (ip), vehicle: saline with Tween-80
[3] = dose: 25.0 mg/kg/injection, schedule: Q01DX009 (ip), vehicle: saline with Tween-80
[4] = dose: 50.0 mg/kg/injection, schedule: Q01DX009 (ip), vehicle: saline with Tween-80
[5] = dose: 100.0 mg/kg/injection, schedule: Q01DX009 (ip), vehicle: saline with Tween-80
[6] = dose: 25.0 mg/kg/injection, schedule: Q01DX009 (ip), vehicle: Klucel (hydroxypropylcellulose) (HPC)
[7] = dose: 50.0 mg/kg/injection, schedule: Q01DX009 (ip), vehicle: Klucel (hydroxypropylcellulose) (HPC)
[8] = dose: 100.0 mg/kg/injection, schedule: Q01DX009 (ip), vehicle: Klucel (hydroxypropylcellulose) (HPC)
[9] = dose: 200.0 mg/kg/injection, schedule: Q01DX009 (ip), vehicle: Klucel (hydroxypropylcellulose) (HPC)
[10] = dose: 3.12 mg/kg/injection, schedule: Q01DX009 (ip), vehicle: saline with Tween-80
[11] = dose: 50.0 mg/kg/injection, schedule: Q01DX009 (ip), vehicle: suspension in saline
[12] = dose: 100.0 mg/kg/injection, schedule: Q01DX009 (ip), vehicle: suspension in saline
[13] = dose: 200.0 mg/kg/injection, schedule: Q01DX009 (ip), vehicle: suspension in saline
[14] = dose: 200.0 mg/kg/injection, schedule: Q01DX009 (ip), vehicle: saline with Tween-80
[15] = dose: 12.5 mg/kg/injection, schedule: Q01DX009 (ip), vehicle: saline
[16] = dose: 25.0 mg/kg/injection, schedule: Q01DX009 (ip), vehicle: saline
[17] = dose: 50.0 mg/kg/injection, schedule: Q01DX009 (ip), vehicle: saline
[18] = dose: 100.0 mg/kg/injection, schedule: Q01DX009 (ip), vehicle: saline

C/C(=N/NC(N)=S)c1ccc2ccccc2c1
T/C [1]: 106 % of control
T/C [2]: 108 % of control
T/C [3]: 108 % of control

COc1cccc2c1C(=O)c1c(O)c3c(c(O)c1C2=O)C[C@@](O)(/C(C)=N/NC(N)=S)C[C@@H]3OC1CC(N)C(O)C(C)O1 (stereo partly drawn)
T/C (dose: 12.5 mg/kg/injection, schedule: Q01DX001 (ip), vehicle: water): 155 % of control and 166 % of control
T/C (dose: 25.0 mg/kg/injection, schedule: Q01DX001 (ip), vehicle: water): 185 % of control and 202 % of control
T/C (dose: 50.0 mg/kg/injection, schedule: Q01DX001 (ip), vehicle: water): 185 % of control and 220 % of control
T/C (dose: 100.0 mg/kg/injection, schedule: Q01DX001 (ip), vehicle: water): 201 % of control

O=C1CN(Cc2ccc3c(c2)OCO3)NO1
T/C [1]: 103 % of control and 106 % of control
T/C [2]: 109 % of control and 95 % of control
T/C [3]: 112 % of control and 107 % of control
T/C [4]: 115 % of control and 117 % of control
T/C [5]: 115 % of control

O=C1c2cccc(NCCCNCCO)c2C(=O)c2cccc(NCCCNCCO)c21
T/C (dose: 6.25 mg/kg/injection, schedule: Q01DX009 (ip), vehicle: acid diluted with saline): 102 % of control
T/C (dose: 12.5 mg/kg/injection, schedule: Q01DX009 (ip), vehicle: acid diluted with saline): 108 % of control
T/C (dose: 25.0 mg/kg/injection, schedule: Q01DX009 (ip), vehicle: acid diluted with saline): 154 % of control

Oc1c(Cl)cc(Cl)cc1C=NCCSc1ccc(Cl)cc1
T/C [6]: 98 % of control and 102 % of control
T/C [7]: 92 % of control and 102 % of control
T/C [8]: 113 % of control and 93 % of control
T/C [9]: 92 % of control and 103 % of control

COC1/C=C\C=C(/C)C(=O)NC2=CC(=O)C(N)=C(CC(C)CC(OC)C(O)C(C)C=C(C)C1OC(N)=O)C2=O (stereo not drawn)
T/C (dose: 0.75 mg/kg/injection, schedule: Q01DX009 (ip), vehicle: saline with Tween-80): 113 % of control
T/C (dose: 1.5 mg/kg/injection, schedule: Q01DX009 (ip), vehicle: saline with Tween-80): 113 % of control
T/C (dose: 3.0 mg/kg/injection, schedule: Q01DX009 (ip), vehicle: saline with Tween-80): 116 % of control

ClC1C(Cl)C(Cl)C(Cl)C(Cl)C1Cl (stereo not drawn)
T/C [10]: 88 % of control and 90 % of control
T/C [1]: 109 % of control and 91 % of control
T/C [2]: 107 % of control
T/C [6]: 100 % of control
T/C [3]: 92 % of control and 97 % of control
T/C [7]: 100 % of control
T/C [4]: 93 % of control
T/C [8]: 105 % of control
T/C [9]: 111 % of control
T/C (dose: 400.0 mg/kg/injection, schedule: Q01DX009 (ip), vehicle: Klucel (hydroxypropylcellulose) (HPC)): 107 % of control

CC1=CC(=O)C(O)C2(C)C1CC1OC(=O)C(OC(=O)CC(C)(C)O)C3C(C)C(O)C4(O)OCC13C42 (stereo not drawn)
T/C (dose: 0.25 mg/kg/injection, schedule: Q01DX009 (ip), vehicle: saline + alcohol): 108 % of control
T/C (dose: 0.5 mg/kg/injection, schedule: Q01DX009 (ip), vehicle: saline + alcohol): 116 % of control
T/C (dose: 1.0 mg/kg/injection, schedule: Q01DX009 (ip), vehicle: saline + alcohol): 110 % of control
T/C (dose: 2.0 mg/kg/injection, schedule: Q01DX009 (ip), vehicle: saline + alcohol): 116 % of control
T/C (dose: 4.0 mg/kg/injection, schedule: Q01DX009 (ip), vehicle: saline + alcohol): 120 % of control

O=C(CNC(=O)OCc1ccccc1)NCC(=O)NC(Cc1c[nH]c2ccccc12)C(=O)O (stereo not drawn)
T/C [11]: 97 % of control
T/C [12]: 109 % of control and 117 % of control and 88 % of control
T/C [13]: 91 % of control and 99 % of control
T/C (dose: 400.0 mg/kg/injection, schedule: Q01DX009 (ip), vehicle: suspension in saline): 88 % of control and 92 % of control and 107 % of control

CCCCC/C(C=C(C#N)C#N)=C/c1ccccc1
T/C [3]: 111 % of control
T/C [4]: 106 % of control
T/C [5]: 123 % of control

COc1cccc2c1C(=O)c1c(O)c3c(c(O)c1C2=O)C[C@@](O)(C(=O)CO)C[C@@H]3OC1CC(N2CCOCC2C#N)C(O)C(C)O1 (stereo partly drawn)
T/C (dose: 9.38 micrograms/kg/injection, schedule: Q01DX001 (ip), vehicle: water): 156 % of control
T/C (dose: 18.75 micrograms/kg/injection, schedule: Q01DX001 (ip), vehicle: water): 153 % of control
T/C (dose: 37.5 micrograms/kg/injection, schedule: Q01DX001 (ip), vehicle: water): 156 % of control

O=C(Nc1ccc(Cl)c(Cl)c1)Nc1c(Oc2ccc(Cl)c(Cl)c2)ccc(Cl)c1S(=O)(=O)O
T/C [1]: 99 % of control
T/C [2]: 101 % of control
T/C [3]: 97 % of control
T/C [4]: 99 % of control
T/C [5]: 97 % of control
T/C [14]: 99 % of control

c1cnc2ncncc2n1
T/C [15]: 110 % of control
T/C [16]: 107 % of control
T/C [17]: 97 % of control
T/C [18]: 91 % of control
T/C (dose: 200.0 mg/kg/injection, schedule: Q01DX009 (ip), vehicle: saline): 99 % of control

O=C1OCC2(C(=O)O)C(=O)OCC12 (stereo not drawn)
T/C [2]: 105 % of control
T/C [3]: 100 % of control
T/C [4]: 101 % of control
T/C [5]: 104 % of control
T/C [14]: 90 % of control

CC#CCOCC(O)CCl (stereo not drawn)
T/C (dose: 25.0 mg/kg/injection, schedule: Q01DX009 (ip), vehicle: suspension in saline): 96 % of control
T/C [11]: 105 % of control
T/C [12]: 106 % of control
T/C [13]: 102 % of control

C=C(C)[C@@H]1CCc2c(O)c(O)c(=O)cc(C)c2C1
T/C (dose: 3.12 mg/kg/injection, schedule: Q01DX009 (ip), vehicle: Klucel (hydroxypropylcellulose) (HPC)): 100 % of control
T/C [10]: 100 % of control
T/C (dose: 6.25 mg/kg/injection, schedule: Q01DX009 (ip), vehicle: Klucel (hydroxypropylcellulose) (HPC)): 99 % of control
T/C [1]: 100 % of control
T/C (dose: 12.5 mg/kg/injection, schedule: Q01DX009 (ip), vehicle: Klucel (hydroxypropylcellulose) (HPC)): 104 % of control
T/C [2]: 95 % of control
T/C [15]: 100 % of control
T/C [6]: 112 % of control
T/C [3]: 102 % of control
T/C [16]: 115 % of control
T/C [7]: 99 % of control
T/C [4]: 110 % of control
T/C [8]: 102 % of control

CCC1OCCN1C(C)C (stereo not drawn)
T/C [16]: 107 % of control
T/C [17]: 107 % of control
T/C [18]: 98 % of control
